How the values were obtained:
[1] = test system: JeKo-1.Luc cells; assay: Anti-tumor efficacy model, JeKo-1.Luc; format: in vivo, NSG mice; details: RPM 1 mg kg^−1 daily for 2 weeks
Method: Immunocompromised NOD scid gamma (NSG) mice were implanted with 5E5 Jeko-1 tumor cells and the tumor cells were allowed to engraft for 6 days. After the six days of engraftment, 1E6 unedited or edited 19CAR-T cells were infused into tumor bearing mice (N=8 mice evaluated for each experimental condition) and administered daily for 2 weeks (dotted vertical lines) either a vehicle (5% PEG400+5% Tween80) or tacrolimus (10 mg/kg in 5% PEG400+5% Tween80). Tumor burden was assessed twice per week by measuring bioluminescence using an IVIS® spectral imaging instrument. In FIGS. 13A and 13B, each data point represents a measurement taken for an individual mouse.
For the study described in FIGS. 18A to 18G, NSG mice were intravenously injected with 5×10^5 JeKo-1.Luc cells at day 0. On day 7, mice initiated daily intraperitoneal injections of VEH, RPM (1 mg kg^−1), or TAC (10 mg kg^−1) for 2 weeks. […] For all studies, tumor burden was measured every 3-4 days post-implant by bioluminescence imaging (IVIS Spectrum, Spectral Instruments Imaging) 30 minutes after intraperitoneally injecting mice with 150 mg kg^−1 XenoLight D-Luciferin (PerkinElmer). The acquisition time was automatically determined by the instrument for each exposure, and quantification of flux from imaging datasets was performed with the Living Image Studio software (Perkin Elmer). […]

[2] = test system: mTOR and downstream substrates S6Rp and 4E-BP1; assay: Phosphorylation of mTOR, S6 and 4EBP1 in malignant B cell lines; format: cell-based, human; details: JeKo-1, Raji and Nalm6 cells treated with DMSO or RPM
Method: (§1) FIGS. 26A to 26E provide histograms and plots showing malignant B cell lines were sensitive to Rapamycin treatment in vitro. FIG. 26A provides histograms showing geometric median fluorescent intensity (MFI) of phosphorylated mTOR (pS2448), S6 (pS235/[…]) and 4EBP1 (pT36/T45) in JeKo-1, Raji and Nalm6 cell lines, as well as primary human monocytes and bulk lymphocytes. FIGS. 26B to 26D relate to an experiment where JeKo-1, Raji and Nalm6 cells were treated with DMSO or Rapamycin (RPM) and then analyzed for phosphorylation level of mTOR (FIG. 26B), S6 (FIG. 26C) and 4EBP1 (FIG. 26D). FIG. 26E provides plots showing JeKo-1, Raji and Nalm6 cell growth kinetics after treatment with DMSO or RPM at different concentrations. Symbols indicate mean and error bars show ±s.e.m.
Live cells were discriminated by staining negative for Fixable Viability Dye eFluor780 (eBioscience). CountBright Counting Beads were used according to the manufacturer's instructions to determine concentration of immune cells from whole blood. Intracellular cytokines were detected using Cell Fixation & Cell Permeability Kit (Invitrogen) following manufacturer's protocol with anti-human antibodies from Biolegend: TNF-a (MAb11), IFN-g (4S.B3), IL-2 (MQH-17H12) and GM-CSF (BVD2-21C11). […] Data was analyzed using FlowJo software v.10 (Tree Star).

[3] = test system: JeKo-1; assay: Cell growth kinetics with rapamycin, JeKo-1; format: cell-based, human; details: RPM at different concentrations
Method: as §1

[4] = test system: Raji; assay: Cell growth kinetics with rapamycin, Raji; format: cell-based, human; details: RPM at different concentrations
Method: as §1

CO[C@H]1C[C@@H]2CC[C@@H](C)[C@@](O)(O2)C(=O)C(=O)N2CCCC[C@H]2C(=O)O[C@H]([C@H](C)C[C@@H]2CC[C@@H](O)[C@H](OC)C2)CC(=O)[C@H](C)/C=C(\C)[C@@H](O)[C@@H](OC)C(=O)[C@H](C)C[C@H](C)/C=C/C=C/C=C/1C [rapamycin, Rapamycin]
JeKo-1 growth in control mice [1]: mitigated JeKo-1 growth in control mice | protein phosphorylation of mTOR and downstream substrates S6Rp and 4E-BP1 [2]: attenuated protein phosphorylation | in vitro proliferation [3]: inhibited in vitro proliferation | in vitro proliferation [4]: inhibited in vitro proliferation

Source: US20260183393A1, “IMMUNOSUPPRESSANT-RESISTANT MODIFIED ALLOGENEIC MODIFIED IMMUNE CELLS AND METHODS FOR USE THEREOF” (Beam Therapeutics Inc., priority 2023, published 2026)
